Structures can show the parent of a compound that is named as a salt.
How the values were obtained:
Aurora B = target: T1, Aurora B (Homo sapiens, UniProt Q96GD4); test: Aurora B inhibitory action (33P-ATP kinase assay, Kemptide substrate); format: biochemical; details: 100 μM ATP, 30° C., 20 minutes
T1 construct: histidine tag (N); made in house; host or cells: Escherichia coli BL21-CodonPlus(DE3)-RIL
Excerpt: Aurora B Inhibitory Action
(1) Purification of Aurora B
(§1) cDNA of Aurora B having histidine tag fused at the amino terminal was integrated into an expression vector, which was then highly expressed in Escherichia coli BL21-CodonPlus(DE3)-RIL cells. The Escherichia coli cells were recovered and solubilized, and then the histidine-tagged […] protein was adsorbed onto a nickel chelate column and eluted from the column with imidazole. The active fraction was desalted with a desalting column to give a pure enzyme.
(2) Measurement of Activity of Aurora B
For measurement of the activity of Aurora B, the substrate used was Kemptide (Lys-Arg-Arg-Ala-Ser-Lys-Gly) (SEQ.ED.NO.: 1), a synthetic peptide purchased from Sigma-Aldrich, Inc. [Certificate of analysis (Upstate, Inc.)].
Reaction was conducted by a partial modification of the method of activity measurement for Aurora A. The amount of the reaction liquid was 21.1 μL, and the composition of the reaction buffer (R2 buffer) was 50 mM Tris-hydrochloride buffer (pH 7.4)/15 mM magnesium acetate/0.2 mM ethylenediamine-N,N,N′,N′-tetraacetate (EDTA). To this, purified Aurora B, 100 μM of a substrate peptide, 100 μM of unlabeled adenosine triphosphate (ATP) and 1 μCi of [γ-^33P] labeled ATP (2,500 Ci/mmole or more) were added, and the mixture was reacted at 30° C. for 20 minutes. Then, 10 μL of 350 mM phosphate buffer was added to the reaction system to stop the reaction. The substrate peptide was adsorbed on a P81 paper filter 96-well plate and then washed with 130 mM phosphate buffer for several times. The radiation activity of the peptide was measured with a liquid scintillation counter. The [γ-^33P] labeled ATP was purchased from Amersham Biosciences Co., Ltd.
(§2) The compound to be tested was added to the reaction system such that a dilution series of the compound in dimethylsulfoxide was first prepared, and 1.1 μL of this solution was added. A control was provided by adding 1.1 μL of DMSO to the reaction system.

Aurora A = target: T2, Aurora A (Homo sapiens, UniProt O14965); test: Aurora A inhibitory action (33P-ATP kinase assay, Kemptide substrate); format: biochemical; details: 20 μM ATP, 30° C., 20 minutes
T2 construct: histidine tag (N); made in house; host or cells: Escherichia coli BL21-CodonPlus(DE3)-RIL
T2 sequence (O14965 1-403): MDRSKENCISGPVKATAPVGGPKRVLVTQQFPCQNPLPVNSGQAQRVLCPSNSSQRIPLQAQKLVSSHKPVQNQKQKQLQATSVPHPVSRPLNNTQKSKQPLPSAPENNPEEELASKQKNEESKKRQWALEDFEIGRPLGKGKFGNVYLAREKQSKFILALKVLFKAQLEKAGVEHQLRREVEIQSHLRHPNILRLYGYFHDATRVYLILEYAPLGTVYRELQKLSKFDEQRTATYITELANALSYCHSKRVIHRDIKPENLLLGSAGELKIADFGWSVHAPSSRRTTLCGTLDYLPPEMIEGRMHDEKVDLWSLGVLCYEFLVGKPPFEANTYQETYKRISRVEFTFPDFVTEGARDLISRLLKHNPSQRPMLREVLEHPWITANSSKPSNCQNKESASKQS
Excerpt: Aurora A Inhibitory Action
(1) Purification of Aurora A
as §1, with “A” for “B”, “BL2 1-CodonPlus(DE3)-RIL” for “BL21-CodonPlus(DE3)-RIL”
(2) Measurement of Activity of Aurora A
For measurement of the activity of Aurora A, the substrate used was Kemptide (Lys-Arg-Arg-Ala-Ser-Lys-Gly) (SEQ.ID.NO.: 1), a synthetic peptide purchased from Sigma-Aldrich, Inc. [Certificate of analysis (Upstate, Inc.)].
Reaction was conducted by a partial modification of a method by Upstate, Inc. [Kinase Profiler™ Assay Protocols]. The amount of the reaction liquid was 21.1 μL, and the composition of the reaction buffer (R2 buffer) was 50 mM Tris-hydrochloride buffer (pH 7.4)/15 mM magnesium acetate/0.2 mM ethylenediamine-N,N,N′,N′-tetraacetate (EDTA). To this, purified Aurora A, 100 μM of a substrate peptide, 20 μM of unlabeled adenosine triphosphate (ATP) and 0.5 μCi of [γ-^33P] labeled ATP (2,500 Ci/mmole or more) were added, and the mixture was reacted at 30° C. for 20 minutes. Then, 10 μL of 350 mM phosphate buffer was added to the reaction system to stop the reaction. The substrate peptide was adsorbed on a P81 paper filter 96-well plate and then washed with 130 mM phosphate buffer for several times. The radiation activity of the peptide was measured with a liquid scintillation counter. The [γ-^33P] labeled ATP was purchased from Amersham Biosciences Co., Ltd.
as §2

T1 sequence (Q96GD4 whole entry): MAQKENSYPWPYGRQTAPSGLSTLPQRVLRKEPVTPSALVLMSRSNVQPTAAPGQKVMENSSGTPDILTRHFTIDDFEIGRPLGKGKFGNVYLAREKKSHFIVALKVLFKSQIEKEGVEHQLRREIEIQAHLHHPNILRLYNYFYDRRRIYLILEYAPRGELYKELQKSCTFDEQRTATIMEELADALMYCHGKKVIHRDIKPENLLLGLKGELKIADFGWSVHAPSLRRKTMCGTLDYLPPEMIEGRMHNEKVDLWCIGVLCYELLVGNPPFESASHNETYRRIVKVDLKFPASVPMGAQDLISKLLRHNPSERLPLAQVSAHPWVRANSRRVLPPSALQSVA

Row | Structure (SMILES) | IC50 (Aurora B) [µM] | IC50 (Aurora A) [µM]
1 | Cn1ccc(C(=O)N2CCN(Cc3cccc(Nc4ncc(Cl)s4)n3)CC2)n1 [Example 69, 6-((4-((1-methyl-1H-pyrazol-3-yl)carbonyl)piperazin-1-yl)methyl)-N-(5-chlorothiazol-2-yl)pyridin-2-amine] | 0.92 | 0.032
2 | CS(=O)(=O)c1cccc(C(=O)N2CCN(Cc3cccc(Nc4ncc(Cl)s4)n3)CC2)c1 [Example 74, 6-((4-(3-(methanesulfonyl)benzoyl)piperazin-1-yl)methyl)-N-(5-chlorothiazol-2-yl)pyridin-2-amine] | 0.85 | 0.047
3 | O=C(c1ccnc(F)c1)N1CCN(Cc2cccc(Nc3ncc(Br)s3)n2)CC1 [Example 79, 6-((4-(2-fluoroisonicotinoyl)piperazin-1-yl)methyl)-N-(5-bromothiazol-2-yl)pyridin-2-amine] | 2.2 | 0.026
4 | NC(=O)c1cc(CN2CCN(C(=O)c3cccc(Cl)c3F)CC2)nc(Nc2nccs2)c1 [Example 87, 2-((4-(3-chloro-2-fluorobenzoyl)piperazin-1-yl)methyl)-6-(thiazol-2-ylamino)isonicotinamide trifluoroacetate] | 1.4 | 0.0012
5 | O=C(NCCO)c1cc(CN2CCN(C(=O)c3cccc(Cl)c3F)CC2)nc(Nc2nccs2)c1 [Example 88, 2-((4-(3-chloro-2-fluorobenzoyl)piperazin-1-yl)methyl)-N-(2-hydroxyethyl)-6-(thiazol-2-ylamino)isonicotinamide trifluoroacetate] | 1 | 0.00072
6 | O=C(c1cccc(Cl)c1F)N1CCN(Cc2cc(Cn3ccnn3)cc(Nc3nccs3)n2)CC1 [Example 90, 6-((4-(3-chloro-2-fluorobenzoyl)piperazin-1-yl)methyl)-N-thiazol-2-yl-4-(1H-1,2,3-triazol-1-ylmethyl)pyridin-2-amine trifluoroacetate] | 0.86 | 0.0015
7 | O=C(c1cccc(Cl)c1F)N1CCN(Cc2cc(Cn3nccn3)cc(Nc3nccs3)n2)CC1 [Example 91, 6-((4-(3-chloro-2-fluorobenzoyl)piperazin-1-yl)methyl)-N-thiazol-2-yl-4-(2H-1,2,3-triazol-2-ylmethyl)pyridin-2-amine trifluoroacetate] | 1.2 | 0.0014
8 | CN(C)Cc1cc(CN2CCN(C(=O)c3cccc(Cl)c3F)CC2)nc(Nc2nccs2)c1 [Example 94, 6-((4-(3-chloro-2-fluorobenzoyl)piperazin-1-yl)methyl)-4-((dimethylamino)methyl)-N-thiazol-2-ylpyridin-2-amine] | 1.1 | 0.0011
9 | O=C(c1cccc(Cl)c1F)N1CCN(Cc2cc(N3CCOC3=O)cc(Nc3nccs3)n2)CC1 [Example 97, 3-(2-((4-(3-chloro-2-fluorobenzoyl)piperazin-1-yl)methyl)-6-(thiazol-2-ylamino)pyridin-4-yl)-1,3-oxazolidin-2-one] | 0.83 | 0.00062

Continued, values first:

Row | IC50 (Aurora B) [µM] | IC50 (Aurora A) [µM] | Structure (SMILES)
10 | 0.096 | 0.0024 | N#Cc1ccccc1C(=O)N1CCN(Cc2cccc(Nc3ncc(Cl)s3)n2)CC1 [Example 70, 6-((4-(2-cyanobenzoyl)piperazin-1-yl)methyl)-N-(5-chlorothiazol-2-yl)pyridin-2-amine]
11 | 0.17 | 0.027 | CC(=O)Nc1cccc(C(=O)N2CCN(Cc3cccc(Nc4ncc(Cl)s4)n3)CC2)c1 [Example 72, 6-((4-(3-(acetylamino)benzoyl)piperazin-1-yl)methyl)-N-(5-chlorothiazol-2-yl)pyridin-2-amine]
12 | 0.047 | 0.00044 | O=C(c1cccc(Cl)c1Cl)N1CCN(Cc2cccc(Nc3ncc(Cl)s3)n2)CC1 [Example 76, 6-((4-(2,3-dichlorobenzoyl)piperazin-1-yl)methyl)-N-(5-chlorothiazol-2-yl)pyridin-2-amine]
13 | 0.24 | 0.002 | O=C(c1cccnc1F)N1CCN(Cc2cccc(Nc3ncc(Br)s3)n2)CC1 [Example 78, 6-((4-((2-fluoropyridin-3-yl)carbonyl)piperazin-1-yl)methyl)-N-(5-bromothiazol-2-yl)pyridin-2-amine]
14 | 0.3 | 0.00033 | O=C(c1cccc(Cl)c1F)N1CCN(Cc2cc(Br)cc(Nc3nccs3)n2)CC1 [Example 81, 4-bromo-6-((4-(3-chloro-2-fluorobenzoyl)piperazin-1-yl)methyl)-N-thiazol-2-ylpyridin-2-amine]
15 | 0.21 | 0.00051 | COC(=O)c1cc(CN2CCN(C(=O)c3cccc(Cl)c3F)CC2)nc(Nc2nccs2)c1 [Example 82, methyl 2-((4-(3-chloro-2-fluorobenzoyl)piperazin-1-yl)methyl)-6-(thiazol-2-ylamino)isonicotinate]
16 | 0.8 | 0.00064 | O=C(O)c1cc(CN2CCN(C(=O)c3cccc(Cl)c3F)CC2)nc(Nc2nccs2)c1 [Example 83, 2-((4-(3-chloro-2-fluorobenzoyl)piperazin-1-yl)methyl)-6-(thiazol-2-ylamino)isonicotinic acid]
17 | 0.4 | 0.00072 | O=C(c1cc(CN2CCN(C(=O)c3cccc(Cl)c3F)CC2)nc(Nc2nccs2)c1)N1CCCC1 [Example 84, 6-((4-(3-chloro-2-fluorobenzoyl)piperazin-1-yl)methyl)-4-(pyrrolidin 1-ylcarbonyl)-N-thiazol-2-ylpyridin-2-amine trifluoroacetate]
18 | 0.61 | 0.001 | CNC(=O)c1cc(CN2CCN(C(=O)c3cccc(Cl)c3F)CC2)nc(Nc2nccs2)c1 [Example 85, 2-((4-(3-chloro-2-fluorobenzoyl)piperazin-1-yl)methyl)-N-methyl-6-(thiazol-2-ylamino)isonicotinamide trifluoroacetate]
19 | 0.83 | 0.00093 | O=C(c1cccc(Cl)c1F)N1CCN(Cc2cc(Cn3cncn3)cc(Nc3nccs3)n2)CC1 [Example 92, 6-((4-(3-chloro-2-fluorobenzoyl)piperazin-1-yl)methyl)-N-thiazol-2-yl-4-(1H-1,2,4-triazol-1-ylmethyl)pyridin-2-amine trifluoroacetate]
20 | 0.25 | 0.00036 | CS(=O)(=O)Cc1cc(CN2CCN(C(=O)c3cccc(Cl)c3F)CC2)nc(Nc2nccs2)c1 [Example 93, 6-((4-(3-chloro-2-fluorobenzoyl)piperazin-1-yl)methyl)-4-((methanesulfonyl)methyl)-N-thiazol-2-ylpyridin-2-amine]
21 | 0.69 | 0.00057 | O=C(c1cccc(Cl)c1F)N1CCN(Cc2cc(N3CCCC3=O)cc(Nc3nccs3)n2)CC1 [Example 96, 1-(2-((4-(3-chloro-2-fluorobenzoyl)piperazin-1-yl)methyl)-6-(thiazol-2-ylamino)pyridin-4-yl)pyrrolidin-2-one]
22 | 0.23 | 0.00036 | CN1CCN(c2cc(CN3CCN(C(=O)c4cccc(Cl)c4F)CC3)nc(Nc3nccs3)c2)C1=O [Example 98, 3-(2-((4-(3-chloro-2-fluorobenzoyl)piperazin-1-yl)methyl)-6-(thiazol-2-ylamino)pyridin-4-yl)-3-methylimidazolidin-2-one]
